Experimental data from patent US5688764A, “Insecticidal peptides from spider venom” (NPS Pharmaceuticals, Inc., priority 1995, dated 1997).

Key:
[1] = system: tobacco budworm (TBW), Heliothis virescens; experiment: Bioassay: injection into the abdomen of fifth instar tobacco budworm larvae, paralysis; type: in vivo; conditions: probit regression
Procedure: Whole venom was isolated by known techniques from the spider, Calisoga. The whole venom, or peptides purified therefrom, were dissolved in sterile buffered physiological saline. For testing and characterization purposes, venom and toxins were administered by injection into the abdomen of fifth instar larvae of the tobacco budworm (TBW), Heliothis virescens. Control larvae were injected with an equal volume of saline. After treatment, the insects were placed individually in Petri dishes, with food, and observed.
Insects that could not right themselves within thirty seconds of being placed on their backs or side were considered paralyzed. Fifty percent paralytic dose (PD50) values were calculated by probit regression (see Example 2). Raymond, M., Ser. Ent. med et Parasitol, 22(2), 117-121 (1985).
Whole venom from a spider, Calisoga sp. (Aranae: Nemesiidae), was dissolved in the desired volume of sterile, buffered physiological saline. Samples were administered by injection into the abdomen of the fifth instar larvae of the tobacco budworm, Heliothis virescens, as previously described. Control larvae were injected with equal volumes of saline.

[2] = system: Balb-C mice; experiment: Mammalian toxicity by intraperitoneal injection in mice; type: in vivo; conditions: male Balb-C mice, 50 micrograms per mouse (~2 mg/kg), up to 120 hours after treatment
Procedure: Peptide A was tested for mammalian toxicity by intraperitoneal injection in mice. Two male Balb-C mice (~25 grams each) were injected with peptide A in physiological saline, at a dose of 50 micrograms per mouse (~2 mg/kg). Two control mice were injected with an equal volume of saline carrier. The mice were observed continuously for 1.5 hours, and periodically thereafter.

[3] = system: Manduca sexta larvae; conditions: toxin secreted in the course of infection by recombinant baculovirus; unnatural host; cited from earlier work
[4] = system: Heliothis virescens larvae; conditions: toxin secreted in the course of infection by recombinant baculovirus; natural host; cited from earlier work

| Molecule | PD50 95% confidence interval [1] [µg/g] | PD50 (fifty percent paralytic dose) [1] [µg/g] | mammalian toxicity: effects observed [2] | effect on larvae (paralysis) [3] | effect on larvae (paralysis) [4] |
| --- | --- | --- | --- | --- | --- |
| peptide A (CISARYPCSNSKDCCSGNCGTFWTCYIRKDPCSKECLAP) | 1.70 to 3.22 | 2.37 | No effects were noted | – | – |
| peptide B (CISARYPCSNSKDCCSGNCGTFWTCFIRKDPCSKECLAP) | 1.72 to 8.0 | 3.7 | – | – | – |
| AaIT: scorpion peptide insect toxin expressed from a recombinant baculovirus (McCutchen et al. 1991) (protein, UniProt P01497 19-88, looked up) Beta-insect excitatory toxin 1: KKNGYAVDSSGKAPECLLSNYCNNECTKVHYADKGYCCLLSCYCFGLNDDKKVLEISDTRKSYCDTTIIN | – | – | – | caused paralysis | caused paralysis |
